PubChem BioAssay AID2060601 (Molecular Pharmacology Branch, DTP, NCI, 2025)
pIC50: −log10 of the molar value. Blank lines part the entries; values can stand above or below the compound they belong to.

Test system: 874868-142-R-J2-PDC complex spheroids, growth % test/control
Assay: Anticancer human tumor 874868-142-R-J2-PDC patient-derived head and neck squamous carcinoma cell line growth inhibition [CLK]
Conditions: for pIC50: curve of first compound; for viability, T/C: stronger effect = lower value
From the text: A high-throughput screen of multi-cell type tumor spheroids was designed to identify active combinations of […] and targeted small molecules. Complex spheroids include a stromal component modeled by human endothelial cells (HUVEC) and fibroblasts modeled by human mesenchymal stem cells (MSCs). The concentration ranges selected for each drug and investigational agent were based upon clinically achievable concentrations if the clinical Cmax of the agent was known.
Compounds. The drugs and investigational agents: cirtuvivint (SM08502; NSC835563), CC-671 (NSC850746), vemurafenib (NSC761431), tapotoclax (NSC804041), sotorasib (NSC818433), adagrasib (NSC831453), MRTX-1133 (NSC836407), BAY2416964 (NSC825713), copanlisib (NSC816437), inavolisib (NSC800729), abemaciclib (NSC768073), osimertinib (NSC779217), entinostat (NSC756642), eltanexor (KPT-8602, NSC794443), venetoclax (NSC766270), ceralasertib (NSC777638), bortezomib (NSC756655), olaparib (NSC753686), talazoparib (NSC767125), alisertib (NSC759677), peposertib (NSC802822), gemcitabine (NSC613327), 5-fluorouracil (NSC19893), SN-38 (NSC673596), oxaliplatin (NSC266046), paclitaxel (NSC125973), and doxorubicin (NSC123127), were obtained from the National Cancer Institute (NCI) Developmental Therapeutics Program Chemical Repository. The FDA-approved anticancer drug set is available from the Developmental Therapeutics Program at https://dtp.cancer.gov/organization/dscb/obtaining/available plates.htm. […] The stock solutions were prepared in dimethyl sulfoxide (DMSO, Sigma-Aldrich, St. Louis, MO, cat. D2650), except for the platinum complexes which were prepared in saline (Quality Biological, Gaithersburg, MD, cat. 114-055-101), at 800-fold the tested concentration and stored at -70 degrees C prior to their use. All drugs and investigational agents were tested over a range starting from a high concentration at or near the clinical Cmax and decreasing in half-log increments. If the clinical Cmax for an agent had not been determined, the highest concentration tested was 10 microM.
Cell Culture. All cells were maintained in an incubator at 37 degrees C and 5% CO2 with 95% humidity. The PDC lines were cultured according to standard operating procedures established by the NCI PDMR. Briefly, all PDCs were thawed and cultured in Matrigel-coated flasks prepared with a working solution of 1X Ham's F-12 nutrient mix, without supplementation (Invitrogen, Waltham, MA, cat. 11765054), 100 U/mL penicillin-streptomycin (Invitrogen, cat. 15140122), and 2.5% Matrigel (Corning Inc., Corning, NY, cat. 354248) for the first three passages. The 947758-054-R-J2-PDC line was cultured in 6B/Colon 1A media, which includes advanced DMEM/F-12 (Thermo Fisher Scientific, cat. 12634028), 10 mM HEPES (Thermo Fisher Scientific, cat. 15630080), 1X GlutaMAX supplement (Thermo Fisher Scientific, cat. 35050061), 0.1 mg/mL primocin (InvivoGen, cat. ant-pm-2), 10% defined fetal bovine serum, heat inactivated (HyClone Laboratories Inc., cat. SH30070.03HI), 1.25 mM N-Acetyl-L-cysteine (Sigma-Aldrich, cat. A9165), 10 mM nicotinamide (Sigma-Aldrich, cat. N0636), 1X B-27 supplement (Thermo Fisher Scientific, cat. 17504044), 1X N-2 supplement (Thermo Fisher Scientific, cat. 17502048), and 10 microM Y-27632 dihydrochloride (Tocris Bioscience, cat. 1254). The 876862-298-R-J1-PDC was cultured in 6E media, which includes all 6B/Colon 1A media components plus 50% L-WRN conditioned media (ATCC, cat. CRL-3276), 50 ng/mL recombinant human EGF recombinant protein (hEGF; Thermo Fisher Scientific, cat. PHG0311), 10 ng/mL recombinant human fibroblast growth factor 10 (hGFG-10; PeproTech, cat. 100-26), 1 ng/mL recombinant human fibroblast growth factor 2 (hFGF-2; PeproTech, cat. 100-18B), and 1 µM prostaglandin E2 (PGE2; Tocris, cat. 2296). The 227483-062-R1-J1-PDC line was cultured in Panc media, containing all 6E components except hFGF-2, with the addition of 500 nM SB-431542 (Selleckchem, cat. S1067) and 10 nM gastrin (Tocris, cat. 3006). […]

[1] = second compound 0.0316 µM, first compound 0.0316 µM
[2] = second compound 0.0316 µM, first compound 0.1 µM
[3] = second compound 0.0316 µM, first compound 0.316 µM
[4] = second compound 0.0316 µM, first compound 1 µM
[5] = second compound 0.0316 µM, first compound 3.16 µM
[6] = second compound 0.0316 µM, first compound 10 µM
[7] = second compound 0.1 µM, first compound 0.0316 µM
[8] = second compound 0.1 µM, first compound 0.1 µM
[9] = second compound 0.1 µM, first compound 0.316 µM
[10] = second compound 0.1 µM, first compound 1 µM
[11] = second compound 0.1 µM, first compound 3.16 µM
[12] = second compound 0.1 µM, first compound 10 µM
[13] = second compound 0.316 µM, first compound 0.0316 µM
[14] = second compound 0.316 µM, first compound 0.1 µM
[15] = second compound 0.316 µM, first compound 0.316 µM
[16] = second compound 0.316 µM, first compound 1 µM
[17] = second compound 0.316 µM, first compound 3.16 µM
[18] = second compound 0.316 µM, first compound 10 µM
[19] = second compound 1 µM, first compound 0.0316 µM
[20] = second compound 1 µM, first compound 0.1 µM
[21] = second compound 1 µM, first compound 0.316 µM
[22] = second compound 1 µM, first compound 1 µM
[23] = second compound 1 µM, first compound 3.16 µM
[24] = second compound 1 µM, first compound 10 µM
[25] = second compound 3.16 µM, first compound 0.0316 µM
[26] = second compound 3.16 µM, first compound 0.1 µM
[27] = second compound 3.16 µM, first compound 0.316 µM
[28] = second compound 3.16 µM, first compound 1 µM
[29] = second compound 3.16 µM, first compound 3.16 µM
[30] = second compound 3.16 µM, first compound 10 µM
[31] = second compound 10 µM, first compound 0.0316 µM
[32] = second compound 10 µM, first compound 0.1 µM
[33] = second compound 10 µM, first compound 0.316 µM
[34] = second compound 10 µM, first compound 1 µM
[35] = second compound 10 µM, first compound 3.16 µM
[36] = second compound 10 µM, first compound 10 µM
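Also: spheroids exposed to the compounds for 7 days.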

pIC50 (second compound 0.0316 µM): 6.15 | pIC50 (second compound 0.1 µM): 6.12 | pIC50 (second compound 0.316 µM): 7.10 | pIC50 (second compound 1 µM): > 7.50 | pIC50 (second compound 3.16 µM): > 7.50 | pIC50 (second compound 10 µM): > 7.50
SMILES: COC1C=CCC(C)C(C)S(=O)(=O)NC(=O)c2ccc3c(c2)N(CC2CCC21)CC1(CCCc2cc(Cl)ccc21)CO3 (centres undefined) + CNC(=O)c1ccc(Nc2nc(OC3CCCC3)c3c(-c4ccc5nc(C)oc5c4)c[nH]c3n2)c(OC)c1
viability, T/C [1]: 92.5% | viability, T/C [2]: 87.4% | viability, T/C [3]: 64.6% | viability, T/C [4]: 42.1% | viability, T/C [5]: 28.4% | viability, T/C [6]: 15.8% | viability, T/C [7]: 92.2% | viability, T/C [8]: 68% | viability, T/C [9]: 57.1% | viability, T/C [10]: 56.6% | viability, T/C [11]: 28% | viability, T/C [12]: 13.2% | viability, T/C [13]: 58.7% | viability, T/C [14]: 49.1% | viability, T/C [15]: 35.6% | viability, T/C [16]: 29.1% | viability, T/C [17]: 25% | viability, T/C [18]: 14.3% | viability, T/C [19]: 44.4% | viability, T/C [20]: 34.8% | viability, T/C [21]: 24.9% | viability, T/C [22]: 18.6% | viability, T/C [23]: 14.8% | viability, T/C [24]: 16.8% | viability, T/C [25]: 36.9% | viability, T/C [26]: 28.7% | viability, T/C [27]: 25.7% | viability, T/C [28]: 19.7% | viability, T/C [29]: 18.5% | viability, T/C [30]: 16.9% | viability, T/C [31]: 40.1% | viability, T/C [32]: 30.4% | viability, T/C [33]: 32.8% | viability, T/C [34]: 17.4% | viability, T/C [35]: 20.6% | viability, T/C [36]: 14.9%

pIC50 (second compound 0.0316 µM): < 5.00 | pIC50 (second compound 0.1 µM): 5.70 | pIC50 (second compound 0.316 µM): 6.34 | pIC50 (second compound 1 µM): > 7.50 | pIC50 (second compound 3.16 µM): > 7.50 | pIC50 (second compound 10 µM): > 7.50
SMILES: O=c1[nH]cc(F)c(=O)[nH]1 + CNC(=O)c1ccc(Nc2nc(OC3CCCC3)c3c(-c4ccc5nc(C)oc5c4)c[nH]c3n2)c(OC)c1
viability, T/C [1]: 81.8% | viability, T/C [2]: 86% | viability, T/C [3]: 71.7% | viability, T/C [4]: 61.1% | viability, T/C [5]: 54.7% | viability, T/C [6]: 50.7% | viability, T/C [7]: 74% | viability, T/C [8]: 68.9% | viability, T/C [9]: 75.8% | viability, T/C [10]: 56.4% | viability, T/C [11]: 50.2% | viability, T/C [12]: 41.5% | viability, T/C [13]: 54% | viability, T/C [14]: 59.2% | viability, T/C [15]: 55.9% | viability, T/C [16]: 34.9% | viability, T/C [17]: 39.4% | viability, T/C [18]: 39.2% | viability, T/C [19]: 43.5% | viability, T/C [20]: 48.6% | viability, T/C [21]: 40.1% | viability, T/C [22]: 29.4% | viability, T/C [23]: 30.1% | viability, T/C [24]: 26% | viability, T/C [25]: 34.9% | viability, T/C [26]: 39.7% | viability, T/C [27]: 29% | viability, T/C [28]: 28.4% | viability, T/C [29]: 28.7% | viability, T/C [30]: 31.9% | viability, T/C [31]: 40.2% | viability, T/C [32]: 46% | viability, T/C [33]: 35.9% | viability, T/C [34]: 23.4% | viability, T/C [35]: 30.8% | viability, T/C [36]: 23.2%
